Where two headings read alike, the source gives them in different places.
Biological target: T1, F508delCFTR (Homo sapiens, UniProt P13569, DEL508-508)
T1 construct: expressed in transfected cells; host or cells: CFBE41o- human lung-derived epithelial cells (CFBE4lo-F508delCFTR-HRP), doxycycline-inducible
Experiment: Cell Surface Expression-Horse Radish Peroxidase (CSE-HRP) Assay;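 on Maximum % activity (with co-corrector): co-corrector and positive control are both the same reference corrector at 2 µM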;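 on Maximum % activity (without co-corrector): percent of the 2 µM on-plate positive control corrector response above DMSO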
Type: cell-based
Settings: for Emax / Maximum % activity (with co-corrector): maximum at any tested concentration, normalized to on-plate positive control; for Emax: read-out: Maximum % activity (without co-corrector)

[1] = test compound without co-corrector
[2] = test compound without co-corrector, read-out: EC50 (without co-corrector)
[3] = with co-corrector (2 μM of 3-[(2R,4R)-4-({[1-(2,2-difluoro-1,3-benzodioxol-5-yl)cyclopropyl]carbonyl}amino)-7-methoxy-3,4-dihydro-2H-chromen-2-yl]benzoic acid), read-out: EC50 (with co-corrector)
[4] = with co-corrector (2 μM of 3-[(2R,4R)-4-({[1-(2,2-difluoro-1,3-benzodioxol-5-yl)cyclopropyl]carbonyl}amino)-7-methoxy-3,4-dihydro-2H-chromen-2-yl]benzoic acid)
[5] = CSE-HRP, test compound without co-corrector, read-out: EC50 (without co-corrector)
[6] = CSE-HRP, with co-corrector (2 μM of 3-[(2R,4R)-4-({[1-(2,2-difluoro-1,3-benzodioxol-5-yl)cyclopropyl]carbonyl}amino)-7-methoxy-3,4-dihydro-2H-chromen-2-yl]benzoic acid), read-out: EC50 (with co-corrector)
[7] = CSE-HRP, with co-corrector (2 μM)

T1 sequence (P13569 with tags, fused parts or gaps DEL508-508): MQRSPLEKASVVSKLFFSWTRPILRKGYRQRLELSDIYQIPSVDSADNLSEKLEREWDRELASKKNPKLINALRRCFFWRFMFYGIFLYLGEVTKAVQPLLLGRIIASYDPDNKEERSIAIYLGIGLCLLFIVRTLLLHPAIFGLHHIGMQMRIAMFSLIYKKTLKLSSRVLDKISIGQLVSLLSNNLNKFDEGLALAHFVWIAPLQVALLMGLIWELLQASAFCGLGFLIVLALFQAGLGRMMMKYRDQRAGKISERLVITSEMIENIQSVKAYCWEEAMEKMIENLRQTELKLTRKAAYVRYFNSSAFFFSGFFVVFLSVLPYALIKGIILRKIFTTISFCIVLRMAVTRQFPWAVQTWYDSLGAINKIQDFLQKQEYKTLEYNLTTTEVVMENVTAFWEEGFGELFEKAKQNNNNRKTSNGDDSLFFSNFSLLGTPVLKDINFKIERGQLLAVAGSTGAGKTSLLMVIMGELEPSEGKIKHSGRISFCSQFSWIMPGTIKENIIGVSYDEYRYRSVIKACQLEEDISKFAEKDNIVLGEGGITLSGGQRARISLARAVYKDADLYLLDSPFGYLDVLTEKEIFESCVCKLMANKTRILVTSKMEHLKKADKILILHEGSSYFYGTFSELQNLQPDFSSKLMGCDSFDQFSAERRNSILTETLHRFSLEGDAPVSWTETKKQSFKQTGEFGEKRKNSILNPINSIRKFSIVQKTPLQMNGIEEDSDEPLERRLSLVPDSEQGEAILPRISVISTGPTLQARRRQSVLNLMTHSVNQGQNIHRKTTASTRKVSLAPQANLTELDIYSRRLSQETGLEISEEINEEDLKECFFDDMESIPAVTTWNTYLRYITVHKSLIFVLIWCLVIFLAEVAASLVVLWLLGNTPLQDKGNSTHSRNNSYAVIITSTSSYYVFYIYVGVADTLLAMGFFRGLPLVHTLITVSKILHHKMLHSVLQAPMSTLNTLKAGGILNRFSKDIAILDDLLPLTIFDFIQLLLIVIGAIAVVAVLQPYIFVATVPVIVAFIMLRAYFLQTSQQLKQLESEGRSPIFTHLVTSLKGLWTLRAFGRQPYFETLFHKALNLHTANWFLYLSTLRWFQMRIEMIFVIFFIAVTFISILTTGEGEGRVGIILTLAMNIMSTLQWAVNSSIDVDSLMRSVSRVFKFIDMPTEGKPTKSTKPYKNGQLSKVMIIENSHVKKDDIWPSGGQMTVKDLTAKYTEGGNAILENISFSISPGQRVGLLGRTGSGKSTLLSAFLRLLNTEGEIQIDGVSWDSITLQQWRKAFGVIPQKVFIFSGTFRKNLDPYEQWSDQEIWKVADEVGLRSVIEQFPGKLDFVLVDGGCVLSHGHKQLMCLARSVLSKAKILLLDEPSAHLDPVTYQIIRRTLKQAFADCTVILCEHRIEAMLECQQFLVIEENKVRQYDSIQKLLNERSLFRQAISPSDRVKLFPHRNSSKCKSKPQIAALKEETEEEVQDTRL

Emax [1] [%] | EC50 [2] [µM] | EC50 [3] [µM] | Maximum % activity (with co-corrector) (with co-corrector (2 μM)) | Emax (without co-corrector) [%] | Maximum % activity (with co-corrector) [4] | EC50 [5] [µM] | EC50 [6] [µM] | Maximum % activity (with co-corrector) [7] | Emax (CSE-HRP, without co-corrector) [%] | Compound
> 200 | < 1 | < 1 | +++ (≥350) | – | – | – | – | – | – | COc1ccc(C23CC(C2)C3)cc1CN[C@H]1[C@H](C(C)(C)C)[C@@H](C(=O)O)N(C(=O)C2CCCCC2)[C@H]1c1ccccc1 [III-202]
– | 1 to 10 | 1 to 10 | +++ (≥350) | 100 to 200 | – | – | – | – | – | COc1ncc(Cl)cc1CN[C@@H]1[C@@H](C(C)(C)C)[C@H](C(=O)O)N(C(=O)C2CCCCC2)[C@@H]1c1ccccc1 (racemic) [Example I-36]
100 to 200 | 1 to 10 | 1 to 10 | – | – | +++ (≥350) | – | – | – | – | COc1ncc(C2=CCOC2)cc1CN[C@H]1[C@H](C(C)(C)C)[C@@H](C(=O)O)N(C(=O)C2CCCCC2)[C@H]1c1ccccc1 [II-350]
> 200 | 1 to 10 | < 1 | – | – | +++ (≥350) | – | – | – | – | COc1ccc(C2CC2)cc1CN[C@H]1[C@H](C(C)(C)C)[C@@H](C(=O)O)N(C(=O)C2CCCCC2)[C@H]1c1ccccc1 [II-352]
< 100 | 1 to 10 | 1 to 10 | – | – | +++ (≥350) | – | – | – | – | COc1cccc(N[C@@H]2[C@@H](C(C)(C)C)[C@H](C(=O)O)N(C(=O)C3CCCCC3)[C@@H]2c2ccccc2)n1 (racemic) [III-8]
< 100 | > 10 | 1 to 10 | ++ (≥150 and <350) | – | – | – | – | – | – | CC(C)(C)[C@H]1[C@H](NCc2ccc3occc3c2)[C@H](c2ccccc2)N(C(=O)C2CCCCC2)[C@@H]1C(=O)O [III-135]
– | 1 to 10 | 1 to 10 | +++ (≥350) | 100 to 200 | – | – | – | – | – | COc1ccc(-c2sc(C)nc2C)cc1CN[C@H]1[C@H](C(C)(C)C)[C@@H](C(=O)O)N(C(=O)C2CCCCC2)[C@H]1c1ccccc1 [Example I-127]
– | 1 to 10 | 1 to 10 | ++ (≥150 and <350) | < 100 | – | – | – | – | – | COc1ccc(C(F)(F)F)cc1C(C)N[C@@H]1[C@@H](C(C)(C)C)[C@H](C(=O)O)N(C(=O)C2CCCCC2)[C@@H]1c1ccccc1 (mixture of isomers) [Example I-8]
< 100 | 1 to 10 | 1 to 10 | – | – | +++ (≥350) | – | – | – | – | COc1ncc(-c2cccnc2C)cc1CN[C@H]1[C@H](C(C)(C)C)[C@@H](C(=O)O)N(C(=O)C2CCCCC2)[C@H]1c1ccccc1 [II-348]
– | – | – | – | – | – | 1 to 10 | 1 to 10 | ++ (≥150 and <350) | < 100 | COc1ccc(CN[C@H]2[C@H](C(C)(C)C)[C@@H](C(=O)O)N(C(=O)C3CCCCC3)[C@H]2c2ccccc2)cc1C(F)(F)F [II-127]
< 100 | 1 to 10 | 1 to 10 | ++ (≥150 and <350) | – | – | – | – | – | – | COc1ccc(CN[C@H]2[C@H](C(C)(C)C)[C@@H](C(=O)O)N(C(=O)C3CCCCC3)[C@H]2c2ccccc2)cc1Cl [III-126]
100 to 200 | 1 to 10 | 1 to 10 | – | – | +++ (≥350) | – | – | – | – | COc1cnc(C2CC3CCC2C3)cc1CN[C@H]1[C@H](C(C)(C)C)[C@@H](C(=O)O)N(C(=O)C2CCCCC2)[C@H]1c1ccccc1 (stereo partly shown) [II-403]

Continued, compound first:

Compound | Emax [1] [%] | EC50 [2] [µM] | EC50 [3] [µM] | Maximum % activity (with co-corrector) (with co-corrector (2 μM)) | Emax (without co-corrector) [%] | Maximum % activity (with co-corrector) [4] | EC50 [5] [µM] | EC50 [6] [µM] | Maximum % activity (with co-corrector) [7] | Emax (CSE-HRP, without co-corrector) [%]
COc1ccc(OC(F)(F)F)cc1CN[C@H]1[C@H](C(C)(C)C)[C@@H](C(=O)O)N(C(=O)OC(C)C)[C@H]1c1ccccc1 [II-523] | > 200 | 1 to 10 | 1 to 10 | – | – | +++ (≥350) | – | – | – | –
COc1ccc(C(C)(C)C)cc1CN[C@H]1[C@H](C(C)(C)C)[C@@H](C(=O)O)N(C(=O)[C@@H](C)Oc2ccccc2)[C@H]1c1ccccc1 [Example I-137] | – | 1 to 10 | 1 to 10 | +++ (≥350) | > 200 | – | – | – | – | –
COc1ccc(C(C)(C)C)cc1CN[C@H]1[C@H](C(C)(C)C)[C@@H](C(=O)O)N(C(=O)C(C)CC(F)(F)F)[C@H]1c1ccccc1 (stereo partly shown) [II-304] | – | – | – | – | – | – | 1 to 10 | 1 to 10 | +++ (≥350) | > 200
COc1ccc(C(F)(F)F)cc1CN[C@@H]1[C@@H](C(C)(C)C)[C@H](C(=O)O)N(C(=O)[C@H]2CCCO[C@H]2C)[C@@H]1c1ccccc1 (racemic) [II-35] | – | – | – | – | – | – | 1 to 10 | 1 to 10 | +++ (≥350) | > 200
COc1ccc(C(C)(C)C)cc1CN[C@H]1[C@H](C(C)(C)C)[C@@H](C(=O)O)N(C(=O)C(Oc2ccccc2C)C(C)C)[C@H]1c1ccccc1 (stereo partly shown) [II-415] | > 200 | 1 to 10 | < 1 | – | – | +++ (≥350) | – | – | – | –
COc1ccc(C(C)(C)C)cc1CN[C@H]1[C@H](C(C)(C)C)[C@@H](C(=O)O)N(C(=O)c2c(OC)cnn2C)[C@H]1c1ccccc1 [II-207] | – | – | – | – | – | – | 1 to 10 | 1 to 10 | +++ (≥350) | 100 to 200
CC(N[C@@H]1[C@@H](C(C)(C)C)[C@H](C(=O)O)N(C(=O)C2CCCCC2)[C@@H]1c1ccccc1)c1ccc2c(c1)OC(F)(F)O2 (mixture of isomers) [Example I-3] | – | > 10 | 1 to 10 | ++ (≥150 and <350) | < 100 | – | – | – | – | –
COc1ncc(C2CCC2)cc1CN[C@H]1[C@H](C(C)(C)C)[C@@H](C(=O)O)N(C(=O)OC(C)C)[C@H]1c1ccccc1C(C)C [Example 68, (2S,3S,4S,5S)-3-tert-butyl-4-{[(5-cyclobutyl-2-methoxypyridin-3-yl)methyl]amino}-1-{[(propan-2-yl)oxy]carbonyl}-5-[2-(propan-2-yl)phenyl]pyrrolidine-2-carboxylic acid] | – | 1 to 10 | < 1 | +++ (≥350) | > 200 | – | – | – | – | –
COc1ccc(C(C)(C)C)cc1CN[C@H]1[C@H](C(C)(C)C)[C@@H](C(=O)O)N(C(=O)Cc2cccc(O)c2)[C@H]1c1ccccc1 [II-196] | – | – | – | – | – | – | 1 to 10 | 1 to 10 | +++ (≥350) | > 200
COc1nc(C(C)(C)C)ccc1CN[C@H]1[C@H](C(C)(C)C)[C@@H](C(=O)O)N(C(=O)C2Cc3ccccc3O2)[C@H]1c1ccccc1 (single isomer, unassigned) [Example I-181] | – | < 1 | < 1 | +++ (≥350) | < 100 | – | – | – | – | –
COc1ncccc1NC1CC(N[C@H]2[C@H](C(C)(C)C)[C@@H](C(=O)O)N(C(=O)OC(C)C)[C@H]2c2ccccc2C2CC2)C1 (stereo partly shown) [Example I-276] | – | – | – | – | – | – | 1 to 10 | 1 to 10 | +++ (≥350) | 100 to 200
COc1ccc(C(C)(C)C)cc1CN[C@H]1[C@H](C(C)(C)C)[C@@H](C(=O)O)N(C(=O)[C@@H]2CCC[C@@H](OC(F)(F)F)C2)[C@H]1c1cccnc1OC [II-540] | > 200 | 1 to 10 | < 1 | – | – | +++ (≥350) | – | – | – | –
COc1cc(F)ccc1CN[C@@H]1[C@@H](C(C)(C)C)[C@H](C(=O)O)N(C(=O)OC(C)C)[C@@H]1c1ccccc1 (racemic) [II-39] | – | – | – | – | – | – | 1 to 10 | 1 to 10 | +++ (≥350) | 100 to 200
COc1ncc(C2CCC2)cc1CN[C@H]1[C@H](C(C)(C)OC)[C@@H](C(=O)O)N(C(=O)C2CCCCC2)[C@H]1c1ccccc1 [Example I-115] | – | 1 to 10 | < 1 | +++ (≥350) | > 200 | – | – | – | – | –
Cc1cc(C(F)(F)F)cc(N[C@H]2[C@H](C(C)(C)C)[C@@H](C(=O)O)N(C(=O)C3CCCCC3)[C@H]2c2ccccc2C)n1 [II-575] | 100 to 200 | 1 to 10 | 1 to 10 | – | – | +++ (≥350) | – | – | – | –
CCOC(=O)N1[C@H](C(=O)O)[C@@H](C(C)(C)C)[C@H](NCc2cc(C(F)(F)F)cnc2OC)[C@@H]1c1ccccc1C(C)C [Example 97, (2S,3S,4S,5S)-3-tert-butyl-1-(ethoxycarbonyl)-4-({[2-methoxy-5-(trifluoromethyl)pyridin-3-yl]methyl}amino)-5-[2-(propan-2-yl)phenyl]pyrrolidine-2-carboxylic acid] | – | < 1 | < 1 | +++ (≥350) | > 200 | – | – | – | – | –
COc1ccc(C(C)(C)C)cc1CN[C@H]1[C@H](C23CC(C2)C3)[C@@H](C(=O)O)N(C(=O)OC(C)C)[C@H]1c1ccccc1F [III-222] | 100 to 200 | 1 to 10 | 1 to 10 | +++ (≥350) | – | – | – | – | – | –
COc1ccc(C(C)(C)C)cc1CN[C@H]1[C@H](C(C)(C)C)[C@@H](C(=O)O)N(C(=O)C2COc3ccccc3C2)[C@H]1c1ccccc1 (stereo partly shown) [II-232] | – | – | – | – | – | – | 1 to 10 | < 1 | +++ (≥350) | 100 to 200
COc1ccc(C(C)(C)C)cc1CN[C@H]1[C@H](C(C)(C)C)[C@@H](C(=O)O)N(C(=O)CC2CCC(C)(C)OC2)[C@H]1c1ccccc1 (stereo partly shown) [II-176] | – | – | – | – | – | – | 1 to 10 | 1 to 10 | +++ (≥350) | 100 to 200

Reference: US20180099931A1 (AbbVie S.à.r.l., priority 2016, published 2018)
